Results: patent publication US20210163404A1, “NOVEL UREA COMPOUNDS AND BIOISOSTERES THEREOF AND THEIR USE FOR TREATING INFLAMMATION AND INFLAMMATION-RELATED PATHOLOGIES” (UNIVERSITÉ LAVAL, priority 2017, published 2021)
pIC50: −log10 of the molar value.

Legend:
IL-6 = IL-6 expression in HaCaT cells stimulated with IL-17A and TNFα (ELISA); assay type: cell-based, human; conditions: for Expression of IL-6, HaCaT: 10 μM solutions, HaCaT stimulated with IL-17A and TNFα, mean of five experiments in duplicate; for inhibitory effect on IL-6 expression in HaCaT cells: 10 μM, stimulated with IL-17A and TNFα, in words
Text: The effect of compounds 3a-b, 4a-e, 5a-e and 6a-e on the expression of IL-6 was subsequently assessed using the HaCaT spontaneously transformed aneuploid immortal keratinocyte cell line, stimulated by the addition of IL-17A and TNFα in the culture medium (Table 1). Curcumin and ibuprofen were used as known IL-6 expression inhibitors. DMSO was used for solubilizing the drugs. […] Indeed, the inhibitory effect of these molecules was at least equivalent to that of curcumin [27] and ibuprofen, both recognized as anti-inflammatory drugs. The inhibitory effect of the substituted phenyl cycloalkylureas in accordance with an embodiment of the present disclosure on proinflammatory cytokines was also found at the mRNA level. Indeed, the mRNAs of the cytokines IL-6 and TNF-α as well as the mRNA of the chemokine IL-8 were lowered in TNF-α/IL-17A-stimulated HaCaT cells. Similar results were obtained in THP-1 cells stimulated with LPS where treatments with CHEU and 4e diminished the mRNA levels of the cytokines IL-1B, IL-6 and TNF-α in addition to the mRNA levels of the chemokine IL-8. It is surmised that the anti-inflammatory mechanism of action of the compounds of the present disclosure is likely mediated, at least in part, by modulating the phosphorylation state of the MAP kinase p38. […] Addition of a compound in accordance with an embodiment of the present disclosure, prior to stimulation with the aforementioned cytokines, decreases the level of p-p38 at 30-60 minutes post-stimulation. This diminution in p-p38 levels destabilizes the mRNAs of pro-inflammatory cytokines, non-limiting examples of which include TNF-α and IL-6. Moreover, it is surmised that the effect of the compounds of the present disclosure on p-p38 is potentially mediated by the activation of the phosphatase named DUSP1.
HaCaT cells (1×10^5) were suspended in DMEM culture media (500 μL) and incubated for 24 h in 24-well microtiter plates at 37° C. in a moisture-saturated atmosphere containing 5% CO2. Compounds were solubilized in DMSO and diluted in fresh DMEM. The compound (500 μL) was then added to the cell medium to obtain a final concentration of […] and the cells incubated over a period of 1 hour. In the meantime, IL-17α (200 ng/mL) and TNFα (20 ng/mL) (PeproTech, Rocky Hill, N.J.) were added to the drug solution in DMEM. Following the initial incubation of the cells, the culture medium was aspirated from each well and the IL-17α+ TNFα+ compound solution was added to each well for incubation (6 hours). The culture media was then removed and transferred to a clean tube (1.5 mL) at −80° C. until the ELISA test was performed. The presence of IL-6 in the cell media was determined using an IL-6 human Duoset ELISA kit (Fisher Scientific, Ottawa, On.) according to the manufacturer's instructions. Standards and samples were prepared and assessed in duplicate. Two separate replicates were performed for each sample. The absorbance was measured at 450 nm and 540 nm using a TECAN infinite M1000 plate reader.

[1] = test system: HT-29 colon adenocarcinoma cells; assay: Antiproliferative activity (NCI procedure, sulforhodamine B), HT-29; assay type: cell-based, human; conditions: Homo sapiens, HT-29, 48 h; for GI50: Table 2; for pIC50: Table 6, unit inferred, tested 781 nM to 100 μM
Procedure, shortened: (§1)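 Cells seeded in DMEM, grown 24 h at 37 °C, then exposed 48 h to serial dilutions from 100 μM to 781 nM (DMSO <0.5%). TCA fixation, sulforhodamine B staining, absorbance at 530-568 nm; growth inhibition relative to plates fixed on treatment day. At least two experiments in triplicate.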

[2] = test system: HaCaT keratinocyte cell line; assay: Antiproliferative activity (NCI procedure, sulforhodamine B), HaCaT; assay type: cell-based, human; conditions: Homo sapiens, HaCaT, 48 h; for GI50: Table 2; for pIC50: Table 6, unit inferred, tested 781 nM to 100 μM
Procedure, shortened: as §1

[3] = test system: HDFn neonatal dermal fibroblast cell line; assay: Antiproliferative activity (NCI procedure, sulforhodamine B), HDFn; assay type: cell-based, human; conditions: Homo sapiens, Fibroblast, 48 h; for GI50: Table 2; for pIC50: Table 6, unit inferred, tested 781 nM to 100 μM
Procedure, shortened: as §1

[4] = test system: A549 adenocarcinoma alveolar epithelial cancer cells; assay: Antiproliferative activity (NCI procedure, sulforhodamine B), A549; assay type: cell-based, human; conditions: Homo sapiens, A549, 48 h; for GI50: Table 2; for pIC50: Table 6, unit inferred, tested 781 nM to 100 μM
Procedure, shortened: as §1

HaCaT cells = assay: Cell cycle analysis by flow cytometry; assay type: cell-based, human; conditions: for Cell cycle progression G0-G1 / Cell cycle progression G2-M / Cell cycle progression S: 10 μM, 24 h; for effect on cell cycle progression: in words
Method: The effect of compounds 3a-b, 4e, 5b-c, 6a and 6e on cell cycle progression was subsequently assessed using a flow cytometer in accordance with established experimental protocols to evaluate any potential drug toxicity at specific phases of the cell cycle (Table 3).
HaCaT cells (2.5×10^5) were incubated with compounds 3a-b, 4e, 5b-c, 6a and 6e and curcumin (10 μM) over a period of 24 h. The cells were subsequently trypsinized, washed with PBS, resuspended in PBS (250 μL), fixed by the addition of ice-cold EtOH (750 μL) under agitation and stored at −20° C. until analysis. Prior to FACS analysis, cells were washed with PBS and resuspended in PBS (500 μL) containing 4′,6′-diamidino-2-phenylindole (DAPI) (2 μg/mL). The cell cycle was analyzed using an LSR II flow cytometer (BD Biosciences, Franklin Lakes, N.J.).

Row | SMILES | Expression of IL-6, HaCaT (IL-6) | GI50 [1] | pIC50 [1] | melting point | GI50 [2] | pIC50 [2] | GI50 [3] | pIC50 [3] | GI50 [4] | pIC50 [4] | Cell cycle progression G0-G1 (HaCaT cells) | Cell cycle progression G2-M (HaCaT cells) | Cell cycle progression S (HaCaT cells) | inhibitory effect on IL-6 expression in HaCaT cells (IL-6) | effect on cell cycle progression (HaCaT cells)
1 | O=C(Nc1cccc(I)c1)NC1CC1 [Compound 36, 1-Cyclopropyl-3-(3-iodophenyl)urea] | 57.3 ± 4.4 pg/mL | > 100 µM | ≤ 4.00 | 153 to 154 °C | > 100 µM | ≤ 4.00 | 79 µM | 4.10 | 84 µM | 4.08 | – | – | – | – | –
2 | CC(C)(C)c1cccc(NC(=O)NCC2CCC2)c1 [Compound 47, 1-(3-(t-Butyl)phenyl)-3-(cyclobutylmethyl)urea] | 47.5 ± 3.3 pg/mL | 43 µM | 4.37 | 126 to 127 °C | 39 µM | 4.41 | 21 µM | 4.68 | 37 µM | 4.43 | 46.1 | 30.4 | 23.5 | significant inhibitory effect | –
3 | O=C(Nc1ccc(C2CCCCC2)cc1)NC1CCCC1 [Compound 58, 1-(4-Cyclohexylphenyl)-3-cyclopentylurea] | 50.3 ± 4.7 pg/mL | 13 µM | 4.89 | 197 to 199 °C | 82 µM | 4.09 | 56 µM | 4.25 | 11 µM | 4.96 | 50.1 | 25.2 | 24.7 | significant inhibitory effect | did not affect the cell cycle progression
4 | O=C(Nc1cccc(I)c1)NC1CCCC1 [Compound 40, 1-Cyclopentyl-3-(3-iodophenyl)urea] | 89.8 ± 9.0 pg/mL | 30 µM | 4.52 | 142 to 143 °C | 49 µM | 4.31 | 23 µM | 4.64 | 30 µM | 4.52 | – | – | – | – | –
5 | CC(C)Cc1ccc(C(C)C(=O)O)cc1 (centres unmarked) [Ibuprofen, reference compound] | 120.3 ± 18.6 pg/mL | > 100 µM | – | – | > 100 µM | – | > 100 µM | – | > 100 µM | – | 57.9 | 16.3 | 25.6 | – | –
6 | O=C(NCC1CCC1)Nc1ccc(C2CCCCC2)cc1 [Compound 57, 1-(Cyclobutylmethyl)-3-(4-cyclohexylphenyl)urea] | 64.1 ± 5.4 pg/mL | > 100 µM | ≤ 4.00 | 172 to 173 °C | > 100 µM | ≤ 4.00 | > 100 µM | ≤ 4.00 | > 100 µM | ≤ 4.00 | – | – | – | significant inhibitory effect | –
7 | CC(C)(C)c1ccc(NC(=O)NC2CC2)cc1 [Compound 27, 1-(4-(t-Butyl)phenyl)-3-cyclopropylurea] | 91.9 ± 7.6 pg/mL | 85 µM | 4.07 | 138 to 139 °C | > 100 µM | ≤ 4.00 | 55 µM | 4.26 | > 100 µM | ≤ 4.00 | – | – | – | – | –
8 | CC(C)(C)c1cccc(NC(=O)NC2CC2)c1 [Compound 44] | 50.4 ± 2.6 pg/mL | > 100 µM | ≤ 4.00 | 169 to 171 °C | > 100 µM | ≤ 4.00 | > 100 µM | ≤ 4.00 | > 100 µM | ≤ 4.00 | – | – | – | – | –
9 | O=C(Nc1ccc(I)cc1)NC1CCCC1 [Compound 24, 1-Cyclopentyl-3-(4-iodophenyl)urea] | 65.1 ± 7.6 pg/mL | 9.7 µM | 5.01 | 188 to 191 °C | > 100 µM | ≤ 4.00 | > 100 µM | ≤ 4.00 | 62 µM | 4.21 | – | – | – | – | –
10 | O=C(NCC1CCC1)Nc1cccc(I)c1 [Compound 39, 1-(Cyclobutylmethyl)-3-(3-iodophenyl)urea] | 90.2 ± 11.1 pg/mL | 25 µM | 4.60 | 138 to 140 °C | 31 µM | 4.51 | 15 µM | 4.82 | 25 µM | 4.60 | – | – | – | – | –
11 | CC(C)(C)c1cccc(NC(=O)NC2CCCC2)c1 [Compound 48, 1-(3-(t-Butyl)phenyl)-3-cyclopentylurea] | 74.6 ± 6.7 pg/mL | 27 µM | 4.57 | 152 to 154 °C | > 100 µM | ≤ 4.00 | 84 µM | 4.08 | 34 µM | 4.47 | – | – | – | – | –
12 | CC(C)(C)c1ccc(NC(=O)NCC2CCC2)cc1 [Compound 30, 1-(4-(t-Butyl)phenyl)-3-(cyclobutylmethyl)urea] | 70.6 ± 7.6 pg/mL | 21 µM | 4.68 | 179 to 184 °C | 35 µM | 4.46 | 8.2 µM | 5.09 | > 100 µM | ≤ 4.00 | – | – | – | – | –
13 | O=C(Nc1ccc(I)cc1)NC1CC1 [Compound 20, 1-Cyclopropyl-3-(4-iodophenyl)urea] | 47.9 ± 4.5 pg/mL | 82 µM | 4.09 | – | > 100 µM | ≤ 4.00 | 95 µM | 4.02 | > 100 µM | ≤ 4.00 | – | – | – | – | –
14 | COc1cc(/C=C/C(=O)CC(=O)/C=C/c2ccc(O)c(OC)c2)ccc1O [Curcumin, reference compound] | 62.8 ± 12.0 pg/mL | 4.2 µM | – | – | 7 µM | – | 7.6 µM | – | 9.9 µM | – | 14.8 | 77.1 | 8.1 | – | clearly arresting the cell cycle progression in the G2-M phase
